Laboratory results from the RepoRT retention time repository.

assay: HILIC, Waters ACQUITY UPLC BEH Amide, 100 × 2.1 mm, 1.7 µm; A: water + 0.125% formic acid + 10 mM ammonium formate; B: 5% water + 95% acetonitrile + 0.125% formic acid + 10 mM ammonium formate; gradient (min/%B) 0/100 2/100 7.7/70 9.5/40 10.25/30 12.75/100 17/100; conditions: stereoisomer not certain

LC retention time	SMILES
7.62 min	CC(O)CC(=O)OC(CC(=O)[O-])C[N+](C)(C)C (stereo not given) [3-Hydroxybutyrylcarnitine]
7.35 min	Nc1c(O)cccc1C(=O)CC(N)C(=O)O (stereo not given) [3-Hydroxykynurenine]
1.45 min	O=C(O)Cc1cccc(O)c1 [3-Hydroxyphenylacetic acid]
7.44 min	NC(Cc1cccc(O)c1)C(=O)O (stereo not given) [3-Hydroxyphenylalanine]
8.17 min	O=C(O)C1NCCC1O (stereo not given) [3-Hydroxyproline]
2.55 min	O=C(O)CCCCCCC(O)CC(=O)O (stereo not given) [3-Hydroxysebacic acid]
1.29 min	CCC(O)CC(=O)O (stereo not given) [3-Hydroxyvaleric acid]
1.33 min	O=C(O)Cc1c[nH]c2ccccc12 [3-Indoleacetic acid]
1.28 min	O=C(O)CCc1c[nH]c2ccccc12 [3-Indolepropionic acid]
2.95 min	CC(C)=CC(=O)NCC(=O)O [3-Methylcrotonylglycine]
6.99 min	Cn1c(=N)ccn(C2OC(CO)C(O)C2O)c1=O (stereo not given) [3-Methylcytidine]
9.41 min	Cn1cncc1CC(N)C(=O)O (stereo not given) [3-Methylhistidine]
1.07 min	CC1C(=O)Nc2ccccc21 (stereo not given) [3-Methyloxyindole]
5.16 min	CSCCCN [3-Methylthiopropylamine]
1.12 min	Cn1c(=O)ccn(C2OC(CO)C(O)C2O)c1=O (stereo not given) [3-Methyluridine]
6.88 min	NC(Cc1ccc(O)c([N+](=O)[O-])c1)C(=O)O (stereo not given) [3-Nitrotyrosine]
8.47 min	CCCCCC(O)CC (stereo not given) [3-Octanol]
1.41 min	OCc1cccnc1 [3-Pyridinemthanol]
5.64 min	C[Si](C)(C)CCC(=O)O [3-Trimethylsilylpropionic acid]

LC retention time	SMILES
5.6 min	NC(=O)NCCC(=O)O [3-Ureidopropionic acid]
2.34 min	CC(C)CCCC(C)C1CCC2C3CC=C4CC(OC(=O)NCCN(C)C)CCC4(C)C3CCC12C (stereo not drawn) [3-beta-Cholest-5-en-3-yl [2-(dimethylamino)ethyl]carbamate]
1.27 min	O=c1c(-c2ccc(O)cc2)coc2cc(O)cc(O)c12 [4,5,7-Trihydroxyisoflavone]
2.26 min	CC(=O)NCCCC(=O)O [4-Acetamidobutyric acid]
1.24 min	CC(=O)CCCC(=O)O [4-Acetylbutyric acid]
7.49 min	Nc1ccc(C(=O)O)cc1 [4-Aminobenzoic acid]
6.6 min	NCC1CCC(C(=O)O)CC1 (stereo not given) [4-Aminomethylcyclohexanecarboxylic acid]
1.34 min	Nc1ccc(O)cc1 [4-Aminophenol]
7.72 min	NC(N)=NCCCC(=O)O [4-Guanidinobutyric acid]
1.63 min	CCCCCCc1ccc(O)cc1O [4-Hexylresorcinol]
4.88 min	CC(=O)CC(C)(C)O [4-Hydroxy-4-methyl-2-pentanone]
1.47 min	Cc1cc(O)cc(=O)o1 [4-Hydroxy-6-methyl-2-pyrone]
1.18 min	O=Cc1ccc(O)cc1 [4-Hydroxybenzaldehyde]
5.86 min	O=C(O)CNC(=O)c1ccc(O)cc1 [4-Hydroxyhippuric acid]
1.07 min	CCCCCC(O)C=CC=O (stereo not given) [4-Hydroxynonenal]
1.69 min	O=c1cc[nH]c2ccccc12 [4-Hydroxyquinoline]
1.21 min	Cc1ncsc1CCO [4-Methyl-5-thiazoleethanol]
1.22 min	Cc1cc(=O)oc2cc(O)ccc12 [4-Methylumbelliferone]

SMILES	LC retention time
N#CCc1c[nH]c2ccccc12 [3-Indoleacetonitrile]	8.02 min
O=C(O)CCP(=O)(O)O [3-Phosphonopropionic acid]	8.59 min
N#CC(O)c1ccc(O)cc1 (stereo not given) [4-Hydroxymandelonitrile]	2.63 min
